Measurements as given in US12544373B2, “Treatment of cancer, inflammatory diseases and autoimmune diseases” (Usher III Initiative, Inc., priority 2020, dated 2026).
Like-named read-outs stand apart in the source and are kept apart here.

How the values were obtained:
Type in all cases: cell-based, human
[1] = system: CNXF 498; assay: CellTiter-Blue 2D monolayer assay (Example 1), glioblastoma; conditions: for Test/Control (%): 72 h
Method: Compound 85 was assessed in 10 human tumor cell lines (see Table 3) for anti-cancer activity in vitro using a CellTiter-Blue® based 2D monolayer assay.
CellTiter-Blue® Cell Viability Assay: Tumor cells were grown at 37° C. in a humidified atmosphere with 5% CO2 in RPMI medium, supplemented with 10% (v/v) fetal calf serum and 50 μg/ml gentamicin (140 μl/well). Cultures were incubated at 37° C. and 5% CO2 in a humidified atmosphere. After 24 hours, 10 μl of Compound 85 was added, and left on the cells for another 72 hours (incubation period). Compound 85 was tested at 5 concentrations (0.003 μM, 0.03 μM, 0.3 μM, 3 μM, and 30 μM) and serially diluted in DMSO, mixed with cell culture medium, and added to the assay plates by using a Tecan Freedom EVO 200 robotic platform. The DMSO concentration was kept constant at 0.3% yip across the assay plate. Every 96 well plate included six DMSO-treated control wells and Compound 85-treated wells in duplicate at 5 concentrations. Viability of cells was quantified using the CellTiter-Blue® cell viability assay (Promega G8081). After incubation of cells, the CellTiter-Blue® reagent was brought to ambient temperature. Next, 20 μl of CellTiter-Blue® reagent were added to each well. After incubation tier up to 4 hours, fluorescence (FU) was measured using the EnSpire® multimode plate reader (Perkin Elmer) ([…]).
Data Evaluation: Sigmoidal concentration-response curves were fitted to the data points (test-versus-control; T/C values) obtained for each tumor model using 4 parameter non-linear curve fit (Charles River DRS Datawarehouse Software). Drug effects are expressed in terms of the percentage of the fluorescence signal, obtained by comparison of the mean signal in the treated wells with the mean signal of the untreated controls (T/C-value [%]) (Table 4). IC50 and IC70 values were reported as relative and absolute IC50 and IC70 values (Table 5). The absolute IC50 and IC70 values reflect the concentration of Compound 85 that achieves T/C=50% and T/C=30%, respectively. The relative IC50 value is the concentration of Compound 85 that gives a response half way between the top and bottom plateau of the sigmoidal concentration-response curve (inflection point of the curve).

[2] = system: CNXF 498; assay: CellTiter-Blue Cell Viability Assay (Example 2), glioblastoma; conditions: for T/C %: 72 h
Description: (§1) The CellTiter-Blue® Cell Viability Assay was used to assess the viability of cells from various cancer cell lines, in the presence or absence of Compound 85 (at different concentrations). This assay provides a homogeneous, fluorometric method for estimating the number of viable cells present in multi-well plates. Viable cells retain the ability to reduce resazurin to resorufin, which is highly fluorescent. […] The fluorescence produced is proportional to the number of viable cells. There is a linear relationship between cell number and fluorescence.
(§2) Cancer cells (see Table 6) were harvested from exponential phase cultures, counted and plated in 96 well flat-bottom microtiter plates, at a cell density 6,000-20,000 cells/well, depending on the cell line's growth rate. The culture medium was supplemented with 10% (v/v) foetal calf serum and 50 μg/mL gentamicin (140 μL/well). Cultures were incubated at 37° C. and 5% CO2 in a humidified atmosphere.
(§3) Compound 85 was serially diluted in DMSO, and five Compound 85 concentrations in half-log increments were used: 0.03 μM, 0.09 μM, 0.30 μM, 1.0 μM, and 3.0 μM. After 24 h, 10 μL of Compound 85 (dissolved in DMSO) or control (DMSO) medium were added, in duplicates, and left on the cells for another 72 h. Compound 85 solutions were added to the assay plates using a Tecan Freedom EVO 200 robotic platform. The DMSO concentration was kept constant at 0.3% v/v across the assay plate.
(§4) After incubation of up to 72 hours, fluorescence (FU) was measured using the EnSpire® multimode plate reader (Perkin Elmer) (excitation λ=570 nm, emission λ=600 nm).
(§5) Cancer cell lines used: Compound 85's anti-cancer effect was tested in 20 human cancer-cell lines representing nine cancer types (Table 6).
(§6) The percentage of viable cells in the presence of Compound 85 (Test condition, T), at different concentrations, are presented in Table 7 and expressed as a percentage of the number of viable cells in the presence of DMSO without Compound 85 (Control condition, C).
(§7) The relative IC50 is determined as the Compound 85 concentration giving a response halfway between the maximum cell viability signal (i.e., a 100% cell viability, no Compound 85 response) and the minimal viability signal (i.e. maximum cell viability inhibition achieved by Compound 85), in a sigmoidal concentration-effect curve.
(§8) The absolute IC50 is determined as the concentration that is associated with a T/C ratio of 50%.

[3] = system: CNXF U-87 MG; assay: as above; conditions: for T/C %: 72 h
Description: as §1, §2, §3, §4, §5, §6, §7, §8

CC(C)(O)Cn1nc(-c2ccccc2)c2c(Cl)c(-c3ccccc3)nnc21 [Compound 85]
Rel. IC70 [1]: 1.868 µM | Test/Control (%) ([1]; 0.003 μM): 106% | Test/Control (%) ([1]; 0.03 μM): 107% | Test/Control (%) ([1]; 0.3 μM): 113% | Test/Control (%) ([1]; 3 μM): 2% | Test/Control (%) ([1]; 30 μM): 1% | Abs. IC70 ([1]; T/C=30%): 1.901 µM | IC50 ([1]; T/C=50%, read-out: Abs. IC50): 1740 nM | Bot. (%) ([1]; bottom plateau of curve): 1% | IC50 ([1]; read-out: Rel. IC50): 1710 nM | Top (%) ([1]; top plateau of curve): 109% | Absolute IC70 [2]: 1.901 µM | Relative IC70 [2]: 1.868 µM | T/C % ([2]; 0.03 μM): 106% | T/C % ([2]; 0.095 μM): 107% | T/C % ([2]; 0.3 μM): 113% | T/C % ([2]; 0.95 μM): 2% | T/C % ([2]; 3.0 μM): 1% | IC50 ([2]; read-out: Absolute IC50): 1740 nM | IC50 ([2]; read-out: Relative IC50): 1710 nM | Absolute IC70 [3]: 0.9938 µM | Relative IC70 [3]: 0.9869 µM | T/C % ([3]; 0.03 μM): 99% | T/C % ([3]; 0.095 μM): 102% | T/C % ([3]; 0.3 μM): 102% | T/C % ([3]; 0.95 μM): 1% | T/C % ([3]; 3.0 μM): 4% | IC50 ([3]; read-out: Absolute IC50): 940 nM | IC50 ([3]; read-out: Relative IC50): 935 nM
